Results from patent US10112895B2, “Antivirals against molluscum contagiosum virus” (priority 2014, dated 2018).
Entries after “also recorded” stand apart in the source; their conditions may differ. Read-outs that look alike come from different tables or passages of the source.

Experiments:
mD4-VV hybrid virus [1] = assay: microbe, parasite or virus in culture; assay type: cell-based, vaccinia hybrid virus containing mD4 of MCV; settings: for EC50: Hybrid virus
[2] = tested on: 2-D keratinocyte cultures; assay: Toxicity on 2-D keratinocyte cultures; assay type: cell-based; settings: at the concentrations used in the 3-D culture experiment
mD4 [3] = target: T1, mD4 (Molluscum contagiosum virus, UniProt Q98260); assay: Binding to immobilized mD4 by SPR (Surface Plasmon Resonance); settings: steady-state response, 1:1 binding model, 0-250 μM, 1% DMSO; read-out: binding affinity KD to mD4 protein by SPR
Description: The binding of compound 2 to mD4 was determined by SPR. mD4 was immobilized onto a biosensor chip at ˜3500 RU, and compound 2 was injected at 0-250 μM in buffer with 1% DMSO. The binding affinity KD was determined from the plot of steady-state response (Req) against compound 2 concentrations and fitting to a 1:1 binding model (FIG. 10).

[4] = target: mD4-dependent processive DNA synthesis (6His-mD4, vA20 and vE9) (Molluscum contagiosum virus, UniProt Q98260); assay: biochemical; parameters: species or system molluscum contagiosum virus / vaccinia virus
mD4-VV hybrid virus [5] = assay: mD4-VV infection of 3-D human skin organ culture (viral titer and histology); assay type: cell-based; settings: for viral titer of mD4-VV in 3-D human skin organ culture: 3 days post infection, compared to DMSO drug vehicle
[6] = Half-life stability in mouse liver microsomes; assay type: in vitro ADME; settings: for half-life: mouse, liver microsomes
mD4 [7] = target: T1, mD4; assay: Thermal shift (differential scanning fluorimetry) assay with purified 6His-mD4; assay type: binding; settings: difference to DMSO mock treatment
Description: Thermal shift assay. Thermal shift (differential scanning fluorimetry) assay was performed as previously described. Briefly, 5 μM purified 6His-mD4 was mixed with compounds in thin-wall PCR 96-plate wells at 20 μL total volume containing 25 mM phosphate buffer (pH 6.8), 0.2 M NaCl, 2.5% glycerol, 2% DMSO, 0.005% (w/v) Triton-X100, and 1× Sypro Orange. Fluorescence intensities were monitored using the Applied Biosystems 7500 Fast Real-Time PCR system (Carlsbad, Calif.) at 582 nm from 25-80 ° C. at a rate of 1° C./min To generate melting temperature (Tm), protein melting curves were plotted on GraphPad Prism and fitted to the Boltzmann sigmoidal model. Thermal shift (ΔTm) is the difference between the 2% DMSO mock-treatment and inhibitor treatment. All experiments were duplicated and repeated independently.

mD4-VV hybrid virus [8] = assay type: cell-based, vaccinia hybrid virus containing mD4 of MCV
vD4-VV rescue virus = assay: microbe, parasite or virus in culture; assay type: cell-based; settings: Orthopoxvirus vaccinia, BSC-1, 16 h, read-out: EC50, plaque reduction of vD4-VV rescue virus
BSC-1 cells = settings: as previously determined; read-out: cytotoxicity CC50 on BSC-1 cells; cited from earlier work
[9] = BSC-1, 16 h, read-out: EC50, plaque reduction of mD4-VV hybrid virus

T1 sequence (Q98260 1-226): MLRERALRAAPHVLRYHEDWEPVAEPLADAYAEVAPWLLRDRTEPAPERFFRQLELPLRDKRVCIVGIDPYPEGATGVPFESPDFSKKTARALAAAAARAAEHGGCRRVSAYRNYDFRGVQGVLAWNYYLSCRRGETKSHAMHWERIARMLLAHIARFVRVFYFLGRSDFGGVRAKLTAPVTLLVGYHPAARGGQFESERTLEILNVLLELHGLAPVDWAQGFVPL
Chain of mD4-dependent processive DNA synthesis (6His-mD4, vA20 and vE9) (Q98260 1-226): as above

**Q.** Which EC50 (mD4-VV hybrid virus [1]; BSC-1, read-out: EC50 (mD4-VV)) does the source give for `NS(=O)(=O)c1ccc(NCc2cc(Cl)ccc2OCc2ccccc2)cc1` [Compound 3, 4-[(2-benzyloxy-5-chloro-phenyl)methylamino]benzenesulfonamide] here?
**A.** 13.9 µM

**Q.** For `O=c1[nH]c2ccc(NCc3ccccc3OCc3ccccc3)cc2[nH]1` [Compound 2, 5-[(2-benzyloxyphenyl)methylamino]-1,3-dihydrobenzimidazol-2-one], which “toxicity on 2-D keratinocyte cultures” value [2] is on record?
**A.** not toxic

**Q.** And the Kd (mD4 [3])?
**A.** 32.8 µM

**Q.** What about the “blocking processive DNA synthesis in vitro” value [4] of the same compound?
**A.** specific blocking processive DNA synthesis in vitro

**Q.** And the “viral titer of mD4-VV in 3-D human skin organ culture” value (mD4-VV hybrid virus [5])?
**A.** blocks mD4-VV viral infection

**Q.** What about the “viral titer of mD4-VV in 3-D human skin organ culture” value (mD4-VV hybrid virus [5]; listed as compound 2) of the same compound?
**A.** significant decline in the viral titer

**Q.** What about the “histological analysis of 3-D human skin organ culture infected with mD4-VV” value (mD4-VV hybrid virus [5]; H&E stained cross-section, 3 days after infection) of the same compound?
**A.** abundant population of stained keratinocytes was observed; also recorded: protection of the 3-D human skin organ culture

**Q.** What about the “increase of half-life in mouse liver microsomes above compound 10” value ([6]; compound 2 versus compound 10) of the same compound?
**A.** greater than 5 fold

**Q.** And the half-life [6]?
**A.** 36 min

**Q.** What about the EC50 (mD4-VV hybrid virus [1]; [9]) of the same compound?
**A.** 3 µM

**Q.** What about the EC50 (mD4-VV hybrid virus [1]; BSC-1, read-out: EC50 (mD4-VV)) of the same compound?
**A.** 10 µM

**Q.** Which EC50 (mD4-VV hybrid virus [1]; BSC-1, read-out: EC50 (mD4-VV)) does the source give for `O=c1[nH]c2ccc(NCc3ccccc3OCc3ccc(Cl)cc3)cc2[nH]1` [Compound 4, 5-[[2-[(4-chlorophenyl)methoxy]phenyl]methylamino]-1,3-dihydrobenzimidazol-2-one] here?
**A.** 11 µM

**Q.** With `Nc1nc2c(ncn2COCCO)c(=O)[nH]1` [acyclovir, reference compound] as the compound, how does the “inhibitory effect in plaque reduction assay” value (mD4-VV hybrid virus [1]) read?
**A.** no inhibitory effect

**Q.** For `O=c1[nH]c2ccc(NCc3cc(Cl)ccc3OCc3ccccc3F)cc2[nH]1` [Compound 8, 5-[[5-chloro-2-[(2-fluorophenyl)methoxy]phenyl]methylamino]-1,3-dihydrobenzimidazol-2-one], which EC50 (mD4-VV hybrid virus [1]; BSC-1, read-out: EC50 (mD4-VV)) is on record?
**A.** 11 µM

**Q.** With `O=c1[nH]c2ccc(NCc3cc(Br)ccc3OCc3ccccc3)cc2[nH]1` [Compound 7, 5-[(2-benzyloxy-5-bromo-phenyl)methylamino]-1,3-dihydrobenzimidazol-2-one] as the compound, how does the EC50 (mD4-VV hybrid virus [1]; BSC-1, read-out: EC50 (mD4-VV)) read?
**A.** 11 µM

**Q.** With `Oc1ccc(NCc2ccccc2OCc2ccccc2)c(F)c1` [Compound 12, 4-[(2-benzyloxyphenyl)methylamino]-3-fluoro-phenol] as the compound, how does the EC50 (mD4-VV hybrid virus [1]; BSC-1, read-out: EC50 (mD4-VV)) read?
**A.** 19.4 µM

**Q.** Which EC50 (mD4-VV hybrid virus [1]; BSC-1, read-out: EC50 (mD4-VV)) does the source give for `c1ccc(COc2ccccc2CNc2ccc3[nH]ncc3c2)cc1` [Compound 14, N-[(2-benzyloxyphenyl)methyl]-1H-indazol-5-amine] here?
**A.** 7.9 µM

**Q.** Which EC50 (mD4-VV hybrid virus [1]; BSC-1, read-out: EC50 (mD4-VV)) does the source give for `Oc1ccc(NCc2cc(Br)ccc2OCc2ccc(F)cc2)cc1` [Compound 1, 4-[[5-bromo-2-[(4-fluorophenyl)methoxy]phenyl]methylamino]phenol] here?
**A.** 19.9 µM

**Q.** For `O=c1[nH]c2ccc(NCc3ccccc3OCc3ccc(F)cc3)cc2[nH]1` [Compound 6, 5-[[2-[(4-fluorophenyl)methoxy]phenyl]methylamino]-1,3-dihydrobenzimidazol-2-one], which EC50 (mD4-VV hybrid virus [1]; BSC-1, read-out: EC50 (mD4-VV)) is on record?
**A.** 13.9 µM

**Q.** Which EC50 (mD4-VV hybrid virus [1]; BSC-1, read-out: EC50 (mD4-VV)) does the source give for `O=[N+]([O-])c1cccc(COc2ccccc2CNc2ccc(O)cc2)c1` [Compound 9, 4-[[2-[(3-nitrophenyl)methoxy]phenyl]methylamino]phenol] here?
**A.** 13.3 µM

**Q.** With `c1ccc(COc2ccccc2CNc2ccc(-c3cnco3)cc2)cc1` [Compound 13, N-[(2-benzyloxyphenyl)methyl]-4-oxazol-5-yl-aniline] as the compound, how does the EC50 (mD4-VV hybrid virus [1]; BSC-1, read-out: EC50 (mD4-VV)) read?
**A.** 14.4 µM

**Q.** Which results are given for `Oc1ccc(NCc2ccccc2OCc2ccccc2)cc1` [Compound 10, 4-[(2-benzyloxyphenyl)methylamino]phenol]?
**A.** Thermal shift (ΔTm) of 6His-mD4 (mD4 [7]; 10 μM compound): 2.2 °C; Thermal shift (ΔTm) of 6His-mD4 (mD4 [7]; 40 μM compound): 3.3 °C; mD4-VV genomic DNA accumulation (mD4-VV hybrid virus [8]): completely prevented; EC50 (vD4-VV rescue virus): 11 µM; IC50 [4]: 28 µM; CC50 (BSC-1 cells): 175 µM; half-life [6]: 6.7 min; EC50 (mD4-VV hybrid virus [1]; [9]): 14 µM; EC50 (mD4-VV hybrid virus [1]; BSC-1, read-out: EC50 (mD4-VV)): 35.6 µM

**Q.** Which EC50 (mD4-VV hybrid virus [1]; BSC-1, read-out: EC50 (mD4-VV)) does the source give for `O=[N+]([O-])c1cccc(COc2ccccc2CNc2ccccc2O)c1` [Compound 11, 2-[[2-[(3-nitrophenyl)methoxy]phenyl]methylamino]phenol] here?
**A.** 17.7 µM
